Measured values reported in patent US20030032771A1, “Peptide inhibitors of cellular proliferation” (priority 2001, published 2003).

Tested on: Drosophila early embryos (syncytial blastoderm)
Assay: Cytological analysis of mitosis in live Drosophila melanogaster embryos after microinjection (time-lapse confocal microscopy)
Assay type: in vivo
Protocol: Embryo microinjections. Microinjections of 0-2 hour Drosophila embryos were carried out as described previously (Sharp et al., J. Cell Biol. 144:125-138 (1999)). Briefly, embryos were initially injected with rhodamine-conjugated bovine tubulin (purchased from Molecular Probes or made in our own laboratory) allowed to recover for 5 minutes and then injected with antibodies or with buffer alone for controls. Because, in our hands, tubulin injections prior to the cortical migration of nuclei at cycle 10 […] normally halts development, embryos were injected with antibodies during cycle 11.
Time-lapse laser scanning confocal microscopy. All images were acquired on a Leica TCS SP confocal microscope run by the Leica TCS software. Time-series were generated using the ‘Time Series’ function contained in the control panel. Each image results from two accumulated (averaged) scans of the sample and new images were acquired every 5 seconds. Because changes in the MT arrays of early embryos occur so quickly, all of the images shown and analyzed in this study represent 1 focal plane (no z-series' were performed). This allowed for the highest temporal and spatial resolution with the least amount of bleaching and other damage resulting from multiple laser scans.
The peptide expressed as described in Example 1 was delivered to Drosophila early embryos (synicytial blastoderm) by microinjections. Drosophila is a much studied organism; its genome has been fully sequenced and its genetics and biochemistry are well understood. In addition, it provides a convenient system for live cytological analyses of mitosis. In the early embryo (syncytial blastoderm) the nuclei form a two-dimensional sheet interconnected by cytoplasm, which proceed through mitosis meta-cynchronously. Because of this, it is possible to inject fluorescent probes like rhodamine tubulin into fly embryos that are transgenically carrying Green Fluorescent protein (GFP)-labeled chromosomes to watch chromosome move on spindle microtubules in real-time. […]

## GEKETPVQKCQRLQIEMNELLNEVAALQVDRKVADEEKQSYDAVVATVISTAR (Drosophila melanogaster) [peptide underlined in FIG. 4]
Embryo microinjected with peptide, still images at about 80 seconds intervals, FIG. 5 panels C-E, rhodamine tubulin, GFP-histone
  formation of two daughter nuclei on mitotic spindles (chromosome separation from the metaphase plate): no spindles upon which two daughter nuclei are formed
Embryos injected with the peptide, during mitosis
  defects in spindle structure: no significant defects in spindle structure
Initial studies, peptide-injected Drosophila embryos
  ability of chromosomes to separate in proliferative cells: strongly and specifically inhibits
